We go through 17 compounds from patent US10836769B2, “Substituted pyrrolizine compounds and uses thereof” (Gilead Sciences, Inc., priority 2018, dated 2020).

For one data set, the system named is HBV. In words: HBV DNA Quantification Assay. It is filed as cell-based. As to conditions: Hepatitis B virus. Here is the method: A HepG2 cell line overexpressing the HBV virus attachment receptor sodium-taurocholate cotransporting polypeptide (NTCP) was grown to confluency in DMEM growth medium, Dulbecco's Modified Eagle Medium without sodium pyruvate (Life Technologies, Rockville, Md.) supplemented with 10% FBS (Thermo Scientific, Waltham, Md.), 1% penicillin/streptomycin (Life Technologies, Rockville, Md.) and 2 mM L-glutamine (Life Technologies, Rockville, Md.) in T175 flasks. Cells were infected with HBV AD38 viral particles (Texcell, Frederick, USA) at 4000 genome equivalents per cell. After allowing viral infection to take place for 4 days, the infected cells were harvested from the flasks by trypsinization, washed twice with OptiMEM (Life Technologies, Rockville, Md.) and re-suspended in DMEM containing 2% FBS and 1% DMSO at a density of 0.25E6 cells/ml. Infected cells were seeded on 384 well collagen coated plates (Greiner, Austria) at a density of 20,000 cells/well containing serially diluted compounds of the present disclosure or DMSO (0.5%) in a final volume of 80 μl. The assay plates were incubated for a period of 5 days and the antiviral activity of the test compounds were assayed by detecting the presence of HBV DNA in the culture supernatant using the QuantiGene™ 2.0 nucleic acid quantification kit (Affymetrix, Santa Clara, Calif.).
The culture supernatant was harvested and treated with lysis buffer containing Proteinase K (Affymetrix, Santa Clara, Calif.). The supernatant was incubated with HBV viral DNA specific probes (Affymetrix, Santa Clara, Calif.) for 30 minutes at 55° C. This was followed by addition of 0.2M NaOH for 30 minutes at room temperature to denature the DNA, followed by addition of Neutralization buffer (Affymetrix, Santa Clara, Calif.). The resulting lysed and neutralized supernatant was then added to QuantiGene™ 2.0 384 well plates coated with capture oligonucleotides and incubated overnight at 55° C. The HBV specific probe set consists of Capture Extender oligonucleotides (CE's) and blocking probes. Following the overnight incubation, the wells were incubated for one hour sequentially with a Pre-Amplifier, Amplifier and Labeled probes conjugated to alkaline phosphatase with a wash step between incubations. After the final wash step, the alkaline phosphatase substrate (Luminol APS5) was added and the resulting luminescence signal was read in an EnVision Multilabel Plate Reader (PerkinElmer, Santa Clara, Calif.). The EC50 values were calculated from the fit of the dose-response curves to a four-parameter equation. All EC50 values represent geometric mean values of a minimum of four determinations.

Another data set can be described thus: Kinetic Solubility. The data set is classed as physicochemical. Conditions: kinetic from dmso stock, 0.2 to 100 μM, BD Gentest Solubility Scanner. Here is the method: The 10 mM DMSO stock solution of the test compound is serially diluted into a 96-well “DMSO stock dilution plate”. Then Pipette 2 μL from the DMSO stock dilution plate into the “Sample plate” and dilute with 198 µL of the assay media to generate the final concentrations of the test compound ranging from 0.2 to 100 μM. The “Sample plate” is run on a BD Gentest Solubility Scanner.

Where [1] appears, read: assay media at pH 1 (composition not named), simulated gastric fluid, pH = 1, read-out: Kinetic Solubility at pH = 1.
Where [2] appears, read: assay media at pH 7 (composition not named), aqueous buffer, pH = 7, read-out: Kinetic Solubility at pH = 7.
Where [3] appears, read: 120 h, HepG2 cell line overexpressing NTCP infected with HBV AD38 viral particles, HBV DNA in culture supernatant after 5 days, geometric mean of a minimum of four determinations, read-out: EC50.
[4] abbreviates: aqueous buffer, pH = 7, read-out: Kinetic Solubility at pH = 7.
[5] abbreviates: simulated gastric fluid, pH = 1, read-out: Kinetic Solubility at pH = 1.

Structures are written as SMILES. Converted amounts (≈) assume the structure as drawn. Like-named read-outs stand apart in the source and are kept apart here.

In general, EC50 refers to the concentration at which the effect is half-maximal. What is called solubility (kinetic) is solubility judged after dilution from a stock solution rather than from solid. Compound `Cc1c(C(=O)Nc2ccc(F)c(F)c2)c2n(c1C(=O)C(=O)NC1(c3cn(C)nn3)CC1)CCC2` [Example 11] showed a concentration for a half-maximal effect (EC50) with HBV (HepG2, 120 h) of 71.2 nM. Also, the kinetic solubility is 48.9 µM (≈ 22.9 µg/mL) in “Kinetic Solubility” (setting [1]) and 56.3 µM (≈ 26.4 µg/mL) in “Kinetic Solubility” (setting [2]).

For `C#CC1(NC(=O)C(=O)c2c(C)c(C(=O)Nc3ccc(F)c(F)c3)c3n2CCC3)CC1` [Example 13], in the data set with HBV (HepG2, 120 h), the concentration giving a half-maximal response (EC50) was determined as 8.5 nM. Moreover, the kinetic solubility was 5 µM (≈ 2.06 µg/mL) in the data set “Kinetic Solubility” (setting [1]) and 6.4 µM (≈ 2.63 µg/mL) in “Kinetic Solubility” (setting [2]).

Take `Cc1c(C(=O)Nc2ccc(F)cc2)c2n(c1C(=O)C(=O)NC1(c3cnn[nH]3)CC(F)(F)C1)C[C@H]1C[C@@H]21` [Example 14, (1aS,6bR)-4-(2-((3,3-difluoro-1-(1H-1,2,3-triazol-4-yl)cyclobutyl)amino)-2-oxoacetyl)-N-(4-fluorophenyl)-5-methyl-1,1a,2,6b-tetrahydrocyclopropa[a]pyrrolizine-6-carboxamide]: the EC50 with HBV (setting [3]) was determined as 2.6 nM. The solubility (kinetic) was 61.4 µM (≈ 30.6 µg/mL) in the data set “Kinetic Solubility” (setting [4]) and 57.1 µM (≈ 28.5 µg/mL) in the data set “Kinetic Solubility” (setting [5]).

For the compound `Cc1c(C(=O)Nc2ccc(F)c(C#N)c2)c2n(c1C(=O)C(=O)NC1(c3cnn[nH]3)CC(F)(F)C1)CCC2` [Example 15, N-(3-cyano-4-fluorophenyl)-5-(2-((3,3-difluoro-1-(1H-1,2,3-triazol-4-yl)cyclobutyl)amino)-2-oxoacetyl)-6-methyl-2,3-dihydro-1H-pyrrolizine-7-carboxamide], in the data set on HBV (setting [3]), the EC50 worked out at 5.2 nM. Further, the values for the solubility (kinetic) in “Kinetic Solubility” (setting [4]) and in the data set “Kinetic Solubility” (setting [5]) were 13.9 µM (≈ 7.11 µg/mL) and 13.5 µM (≈ 6.9 µg/mL), respectively.

Take `Cc1c(C(=O)Nc2ccc(F)c(Cl)c2)c2n(c1C(=O)C(=O)NC1(c3cnn[nH]3)CC(F)(F)C1)CCC2` [Example 16, N-(3-chloro-4-fluorophenyl)-5-(2-((3,3-difluoro-1-(1H-1,2,3-triazol-4-yl)cyclobutyl)amino)-2-oxoacetyl)-6-methyl-2,3-dihydro-1H-pyrrolizine-7-carboxamide]: the concentration giving a half-maximal response (EC50) with HBV (setting [3]) stood at 1.8 nM. Moreover, the solubility (kinetic) in the data set “Kinetic Solubility” (setting [4]) is 2.8 µM (≈ 1.46 µg/mL); in the data set “Kinetic Solubility” (setting [5]), 16.5 µM (≈ 8.59 µg/mL).

With `Cc1c(C(=O)Nc2ccc(F)cc2)c2n(c1C(=O)C(=O)NC1(c3cnn[nH]3)CC(F)(F)C1)CCC2` [Example 17, 5-(2-((3,3-difluoro-1-(1H-1,2,3-triazol-4-yl)cyclobutyl)amino)-2-oxoacetyl)-N-(4-fluorophenyl)-6-methyl-2,3-dihydro-H-pyrrolizine-7-carboxamide], in the data set with HBV (setting [3]), the half-maximal effective concentration (EC50) was found to be 4.1 nM. The kinetic solubility in the data set “Kinetic Solubility” (setting [4]) is 77.8 µM (≈ 37.8 µg/mL); in the data set “Kinetic Solubility” (setting [5]) it was 70.2 µM (≈ 34.1 µg/mL).

Turning to `Cc1c(C(=O)Nc2cc(F)c(F)c(F)c2)c2n(c1C(=O)C(=O)NC1(c3cnn[nH]3)CC(F)(F)C1)CCC2` [Example 18], the concentration giving a half-maximal response (EC50) in the data set with HBV (setting [3]) worked out at 2.4 nM. For the same compound, the solubility (kinetic) in the data set “Kinetic Solubility” (setting [4]) was 52.7 µM (≈ 27.5 µg/mL); in “Kinetic Solubility” (setting [5]), 50 µM (≈ 26.1 µg/mL).

For `Cc1c(C(=O)Nc2ccc(F)c(F)c2)c2n(c1C(=O)C(=O)NC1(CO)CC(F)(F)C1)CCC2` [Example 19, 5-(2-((3,3-difluoro-1-(hydroxymethyl)cyclobutyl)amino)-2-oxoacetyl)-N-(3,4-difluorophenyl)-6-methyl-2,3-dihydro-1H-pyrrolizine-7-carboxamide], the half-maximal effective concentration (EC50) in the data set with HBV (setting [3]) stood at 20.2 nM. The kinetic solubility in “Kinetic Solubility” (setting [4]) is 62 µM (≈ 29 µg/mL); in “Kinetic Solubility” (setting [5]), 68.7 µM (≈ 32.1 µg/mL).

`CNC(=O)C1(NC(=O)C(=O)c2c(C)c(C(=O)Nc3ccnc(C(F)F)c3F)c3n2CCC3)CC(F)(F)C1` [Example 20, 5-(2-((3,3-difluoro-1-(methylcarbamoyl)cyclobutyl)amino)-2-oxoacetyl)-N-(2-(difluoromethyl)-3-fluoropyridin-4-yl)-6-methyl-2,3-dihydro-1H-pyrrolizine-7-carboxamide]: the EC50 with HBV (setting [3]) amounted to 503 nM. Besides, the solubility (kinetic) in “Kinetic Solubility” (setting [4]) is 28 µM (≈ 14.8 µg/mL); in “Kinetic Solubility” (setting [5]), 26.3 µM (≈ 13.9 µg/mL).

With `Cc1c(C(=O)Nc2ccc(F)c(F)c2)c2n(c1C(=O)C(=O)NC1(c3cnn[nH]3)CC(F)(F)C1)C[C@@H]1C[C@H]21` [Example 21], in the data set on HBV (setting [3]), the EC50 was 3.9 nM. For the same compound, the kinetic solubility in “Kinetic Solubility” (setting [4]) is 57.6 µM (≈ 29.7 µg/mL); in the data set “Kinetic Solubility” (setting [5]), 64.7 µM (≈ 33.4 µg/mL).

Consider `CNC(=O)C1(NC(=O)C(=O)c2c(C)c(C(=O)Nc3ccc(F)c(F)c3)c3n2C[C@@H]2C[C@H]32)CC(F)(F)C1` [Example 22, (1aR,6bS)-4-(2-((3,3-difluoro-1-(methylcarbamoyl)cyclobutyl)amino)-2-oxoacetyl)-N-(3,4-difluorophenyl)-5-methyl-1,1a,2,6b-tetrahydrocyclopropa[a]pyrrolizine-6-carboxamide], for which the 50% effective concentration (EC50) with HBV (setting [3]) was 31.5 nM. Besides, the solubility (kinetic) in the data set “Kinetic Solubility” (setting [4]) and in the data set “Kinetic Solubility” (setting [5]) was greater than 100 µM throughout.

With `Cc1c(C(=O)Nc2ccc(F)c(F)c2)c2n(c1C(=O)C(=O)NC1(c3cnn[nH]3)CC(F)(F)C1)[C@H]1C[C@H]1C2` [Example 23, (1aS,6aS)-3-(2-((3,3-difluoro-1-(1H-1,2,3-triazol-5-yl)cyclobutyl)amino)-2-oxoacetyl)-N-(3,4-difluorophenyl)-4-methyl-1,1a,6,6a-tetrahydrocyclopropa[a]pyrrolizine-5-carboxamide], the EC50 with HBV (setting [3]) stood at 31.8 nM. In addition, the solubility (kinetic) in the data set “Kinetic Solubility” (setting [4]) is 49.4 µM (≈ 25.5 µg/mL); in the data set “Kinetic Solubility” (setting [5]), 62 µM (≈ 32 µg/mL).

Take `CNC(=O)C1(NC(=O)C(=O)c2c(C)c(C(=O)Nc3ccc(F)c(F)c3)c3n2[C@H]2C[C@H]2C3)CC(F)(F)C1` [Example 24]: the concentration giving a half-maximal response (EC50) in the data set with HBV (setting [3]) worked out at 177 nM. Moreover, the solubility (kinetic) in “Kinetic Solubility” (setting [4]) was 87.1 µM (≈ 44.1 µg/mL); in the data set “Kinetic Solubility” (setting [5]), 99.4 µM (≈ 50.3 µg/mL).

Turning to `Cc1c(C(=O)Nc2ccc(F)c(F)c2)c2n(c1C(=O)C(=O)NC1(c3cnn[nH]3)CC(F)(F)C1)C[C@H]1C[C@@H]21` [Example 25, (1aS,6bR)-4-(2-((3,3-difluoro-1-(1H-1,2,3-triazol-5-yl)cyclobutyl)amino)-2-oxoacetyl)-N-(3,4-difluorophenyl)-5-methyl-1,1a,2,6b-tetrahydrocyclopropa[a]pyrrolizine-6-carboxamide], the concentration giving a half-maximal response (EC50) in the data set with HBV (setting [3]) turned out to be 1.9 nM. For the same compound, the kinetic solubility in the data set “Kinetic Solubility” (setting [4]) is 65 µM (≈ 33.6 µg/mL); in “Kinetic Solubility” (setting [5]), 72.6 µM (≈ 37.5 µg/mL).

With `CNC(=O)C1(NC(=O)C(=O)c2c(C)c(C(=O)Nc3ccc(F)c(F)c3)c3n2C[C@H]2C[C@@H]32)CC(F)(F)C1` [Example 26, (1aS,6bR)-4-(2-((3,3-difluoro-1-(methylcarbamoyl)cyclobutyl)amino)-2-oxoacetyl)-N-(3,4-difluorophenyl)-5-methyl-1,1a,2,6b-tetrahydrocyclopropa[a]pyrrolizine-6-carboxamide], the EC50 in the data set with HBV (setting [3]) was found to be 20.6 nM. Also, the solubility (kinetic) in the data set “Kinetic Solubility” (setting [4]) and in the data set “Kinetic Solubility” (setting [5]) was greater than 100 µM each time.

`Cc1c(C(=O)Nc2ccc(F)c(C(F)F)c2)c2n(c1C(=O)C(=O)NC1(c3c[nH]nn3)CC1)CCC2` [Example 27, 5-(2-((1-(1H-1,2,3-triazol-4-yl)cyclopropyl)amino)-2-oxoacetyl)-N-(3-(difluoromethyl)-4-fluorophenyl)-6-methyl-2,3-dihydro-1H-pyrrolizine-7-carboxamide]: the EC50 with HBV (setting [3]) stood at 23 nM. Moreover, the kinetic solubility in “Kinetic Solubility” (setting [4]) was 2.7 µM (≈ 1.31 µg/mL); in “Kinetic Solubility” (setting [5]), 8.4 µM (≈ 4.09 µg/mL).

As to `CNC(=O)C1(NC(=O)C(=O)c2c(C)c(C(=O)Nc3ccc(F)c(C#N)c3)c3n2CCC3)CC(F)(F)C1` [Example 28, N-(3-cyano-4-fluorophenyl)-5-(2-((3,3-difluoro-1-(methylcarbamoyl)cyclobutyl)amino)-2-oxoacetyl)-6-methyl-2,3-dihydro-1H-pyrrolizine-7-carboxamide], the concentration giving a half-maximal response (EC50) in the data set on HBV (setting [3]) was 294 nM. Also, the solubility (kinetic) in “Kinetic Solubility” (setting [4]) was 25.3 µM (≈ 12.7 µg/mL); in the data set “Kinetic Solubility” (setting [5]), 55.7 µM (≈ 27.9 µg/mL).
